Laboratory results as given in US20020002171A1, “Materials and methods for killing nematodes and nematode eggs” (priority 2000, published 2002).

Test system: Caenorhabditis elegans
Experiment: C. elegans L1 nematicidal dose response in 96-well plates, 5 day visual score (Example 2; same procedure for Example 7, Table 3)
Format: in vivo
Set-up: key to 5 Day Visual Score V1 / 5 Day Visual Score V2 / 5 Day Visual Score V3 / 5 Day Visual Score V4 / 5 Day Visual Score V6 / 5 Day Visual Score V5 / Initial HTS Run Visual Score / Follow-up HTS Run Visual Score: Dead: only stiff L1s (no movement); Dead (L4): worms are dead, but at a later larval stage; majority of worms are L1 (based on size) worms move when plate is tapped; majority of worms are L2 (based on size); majority of worms are L3 (based on size); majority of worms are L4 (based on size); AD: majority of worms are adult; #AD: 5 adult worms or less; B!: sterile (0-25 progeny); B: low broodsize (25-100 progeny); ˜B: moderate broodsize (100-250 progeny); <: reduced broodsize (250-500 progeny); OK: no effect (˜1000+ progeny)
Summary of the method: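 Scoring was by eye at 100× on day 5, after incubation at 20° C, of 20 C. elegans L1s per well fed 1% E. coli HB101 in NGM. Compound columns V1–V6 spanned 70 μM to 0.3 μM in 3-fold steps, with 1.4% DMSO in the top well and as control.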

[1] = dose response, dilution V1, day 5
[2] = dose response, dilution V3, day 5
[3] = dose response, dilution V4, day 5
[4] = dose response, dilution V5, day 5
[5] = dose response, dilution V6, day 5
[6] = dose response, dilution V2, day 5
[7] = 0.3 μM, C. elegans L1, scored day 5
[8] = 0.9 μM, C. elegans L1, scored day 5
[9] = 2.6 μM, C. elegans L1, scored day 5
[10] = 7.8 μM, C. elegans L1, scored day 5
[11] = 23.3 μM, C. elegans L1, scored day 5
[12] = 70 μM, C. elegans L1, scored day 5
[13] = dose response, dilution V1, 5 day
[14] = dose response, dilution V2, 5 day
[15] = dose response, dilution V4, 5 day
[16] = dose response, dilution V5, 5 day
[17] = dose response, dilution V6, 5 day
[18] = dose response, dilution V3, 5 day

SMILES | Follow-up HTS Run % Run [%] | Follow-up HTS Run Visual Score | Follow-up HTS Run mOD [mOD] | Initial HTS Run % Run [%] | Initial HTS Run Visual Score | Initial HTS Run mOD [mOD] | 5 Day Visual Score V1 [1] | 5 Day Visual Score V3 [2] | 5 Day Visual Score V4 [3] | 5 Day Visual Score V5 [4] | 5 Day Visual Score V6 [5] | 5 Day Visual Score V2 [6] | also measured
COCCN(CCOC)c1nc(N2CCN(c3c(C)cccc3C)CC2)ns1 [compound 221] | 84 | 5AD/B | 136 | 97 | L4/AD/B | 107 | #AD/˜B | OK (no effect (˜1000+ progeny)) | OK (no effect (˜1000+ progeny)) | OK (no effect (˜1000+ progeny)) | OK (no effect (˜1000+ progeny)) | – | –
CN(CCc1ccccc1)c1nc(NCc2ccc(F)cc2F)ns1 [compound 294] | 116 | B! (sterile (0-25 progeny)) | 187 | 108 | L4/AD/B!-Few Eggs | 119 | – | OK (no effect (˜1000+ progeny)) | OK (no effect (˜1000+ progeny)) | OK (no effect (˜1000+ progeny)) | OK (no effect (˜1000+ progeny)) | – | –
CC1CC(C)CN(c2nc(NCc3ccc(C(F)(F)F)cc3)ns2)C1 (stereo not shown) [compound 248] | 112 | L3/L4/AD/B! | 181 | 99 | L3/L4/AD/B | 109 | – | < (reduced broodsize (250-500 progeny)) | OK (no effect (˜1000+ progeny)) | OK (no effect (˜1000+ progeny)) | OK (no effect (˜1000+ progeny)) | ˜B (moderate broodsize (100-250 progeny)) | –
CCCCCCCCCCNc1nsc(N2CCN(c3ncccn3)CC2)n1 [compound 274] | 116 | Dead | 187 | 111 | Dead | 122 | Dead | – | B (low broodsize (25-100 progeny)) | OK (no effect (˜1000+ progeny)) | OK (no effect (˜1000+ progeny)) | Dead | –
CCC(=O)C(C)C(Nc1cc(Br)c(C)c(Br)c1)c1ccc(C)o1 (stereo not shown) [AKC 131] | – | – | – | – | – | – | – | – | – | – | – | – | 5 Day Visual Score V6 [7]: < (reduced broodsize (250-500 progeny)); 5 Day Visual Score V5 [8]: #AD/˜B; 5 Day Visual Score V4 [9]: #AD/˜B; 5 Day Visual Score V3 [10]: #AD/˜B; 5 Day Visual Score V2 [11]: L1; 5 Day Visual Score V1 [12]: Dead
O=C(NCCc1ccccc1F)C1C(c2ccc(F)cc2)=NOC1c1ccc(-c2ccccc2)cc1 (stereo not shown) [AKC 2153] | – | – | – | – | – | – | – | – | – | – | – | – | 5 Day Visual Score V2 [11]: L1; 5 Day Visual Score V1 [12]: L1
CCCN(CC1CC1)c1nc(NCc2ccccc2C(F)(F)F)ns1 [compound 260] | 147 | L2 | 236 | 122 | L2 (Dead L3) | 134 | L1 | OK (no effect (˜1000+ progeny)) | OK (no effect (˜1000+ progeny)) | OK (no effect (˜1000+ progeny)) | OK (no effect (˜1000+ progeny)) | B (low broodsize (25-100 progeny)) | –
CCCCCCCCCCCCCCCCCCN(C)c1nc(NC2CCCCCCCCCCC2)ns1 [compound 330] | 56 | Dead | 90 | 107 | Dead (L2/L3) | 118 | – | – | – | – | – | – | 5 Day Visual Score V1 [13]: Dead; 5 Day Visual Score V2 [14]: Dead; 5 Day Visual Score V4 [15]: OK (no effect (˜1000+ progeny)); 5 Day Visual Score V5 [16]: OK (no effect (˜1000+ progeny)); 5 Day Visual Score V6 [17]: OK (no effect (˜1000+ progeny))
Cc1cccc(C)c1N1CCN(c2nc(NCc3ccccc3C(F)(F)F)ns2)CC1 [compound 318] | 111 | B (low broodsize (25-100 progeny)) | 178 | 101 | B!-Clear-Few Eggs | 111 | – | – | – | – | – | – | 5 Day Visual Score V1 [13]: B (low broodsize (25-100 progeny)); 5 Day Visual Score V2 [14]: ˜B (moderate broodsize (100-250 progeny)); 5 Day Visual Score V3 [18]: OK (no effect (˜1000+ progeny)); 5 Day Visual Score V4 [15]: OK (no effect (˜1000+ progeny)); 5 Day Visual Score V5 [16]: OK (no effect (˜1000+ progeny)); 5 Day Visual Score V6 [17]: OK (no effect (˜1000+ progeny))
CCOc1cccc(C2ON=C(c3ccccc3OCC)C2C(=O)NCc2ccc(OC(F)(F)F)cc2)c1 (stereo not shown) [AKC 125] | – | – | – | – | – | – | – | – | – | – | – | – | 5 Day Visual Score V4 [9]: L2; 5 Day Visual Score V3 [10]: L2; 5 Day Visual Score V2 [11]: L2/Dead(L4); 5 Day Visual Score V1 [12]: L2/Dead(L3)
CC(C)(C)C1=NOC(c2ccc(-c3ccccc3)cc2)C1C(=O)NCCc1ccccc1F (stereo not shown) [AKC 120] | – | – | – | – | – | – | – | – | – | – | – | – | 5 Day Visual Score V6 [7]: OK (no effect (˜1000+ progeny)); 5 Day Visual Score V5 [8]: #AD/˜B; 5 Day Visual Score V3 [10]: L1; 5 Day Visual Score V1 [12]: L1
CN(Cc1ccccc1)c1nc(NCc2ccccc2)ns1 [AKC 328] | 101 | – | 163 | 98 | – | 108 | Dead | – | – | ˜B (moderate broodsize (100-250 progeny)) | – | L1 | –
CCN(CC)C(=O)C1CCCN(c2nc(N3CCN(c4ccc(F)cc4)CC3)ns2)C1 (stereo not shown) [compound 223] | 118 | Dead | 190 | 107 | – | 118 | Dead | < (reduced broodsize (250-500 progeny)) | OK (no effect (˜1000+ progeny)) | OK (no effect (˜1000+ progeny)) | OK (no effect (˜1000+ progeny)) | B (low broodsize (25-100 progeny)) | –
CCCCCCCCCCNc1nsc(N2CCN(c3ccc(F)cc3)CC2)n1 [compound 273] | 94 | Dead | 151 | 101 | – | 111 | Dead | B (low broodsize (25-100 progeny)) | ˜B (moderate broodsize (100-250 progeny)) | OK (no effect (˜1000+ progeny)) | OK (no effect (˜1000+ progeny)) | Dead | –
CCCCN(CC)c1nc(NC2CCCCCCCCCCC2)ns1 [compound 332] | 75 | Dead | 121 | 92 | Dead | 101 | – | – | – | – | – | – | 5 Day Visual Score V1 [13]: Dead; 5 Day Visual Score V2 [14]: Dead; 5 Day Visual Score V3 [18]: L1; 5 Day Visual Score V4 [15]: OK (no effect (˜1000+ progeny)); 5 Day Visual Score V5 [16]: OK (no effect (˜1000+ progeny)); 5 Day Visual Score V6 [17]: OK (no effect (˜1000+ progeny))
CC1CCN(c2nc(NCc3ccc(C(F)(F)F)cc3)ns2)CC1 [compound 247] | 105 | – | 169 | 91 | – | 100 | – | OK (no effect (˜1000+ progeny)) | OK (no effect (˜1000+ progeny)) | OK (no effect (˜1000+ progeny)) | OK (no effect (˜1000+ progeny)) | ˜B (moderate broodsize (100-250 progeny)) | –
FC(F)(F)c1ccc(CNc2nsc(N3CCN(c4cccc(C(F)(F)F)c4)CC3)n2)cc1 [compound 250] | 125 | – | 201 | 108 | L2 - (Dead L3) | 119 | L3/Dead(L3) | B (low broodsize (25-100 progeny)) | OK (no effect (˜1000+ progeny)) | OK (no effect (˜1000+ progeny)) | OK (no effect (˜1000+ progeny)) | L4/#AD/B! | –
O=C(Nc1ccc(Br)cc1)NC1CCC(c2nc(-c3ccccc3)no2)CC1 (stereo not shown) [AKC 114] | – | – | – | – | – | – | – | – | – | – | – | – | 5 Day Visual Score V6 [7]: ˜B (moderate broodsize (100-250 progeny)); 5 Day Visual Score V4 [9]: L3/Dead(L; 5 Day Visual Score V3 [10]: L3; 5 Day Visual Score V2 [11]: L3/Dead(L4); 5 Day Visual Score V1 [12]: Dead
